Results on 6 compounds are retold here after patent publication US20250195521A1 (Revolution Medicines, Inc., priority 2020, published 2025).

Assay [1] has as its system NCI-H358 cells (K-Ras G12C). Briefly: CellTiter-Glo cell viability, NCI-H358. In kind it is cell-based, human. The following applies: Homo sapiens, NCI-H358, 120 h, K-Ras G12C, 5-day treatment; read-out: H358 Cell Viability IC50. The essentials:
(§1)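 Cells seeded, compound dispensed straight into wells, 5-day exposure. Plates brought to room temperature ~30 min, CellTiter-Glo luminescence measured. Normalized to DMSO (%), 4-parameter logistic fit.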
For orientation: ATP-based viability assays read luminescence as a measure of living cells.

The next assay concerns the target KRAS G12C (Homo sapiens (Human), UniProt P01116+P62937, G12C). Briefly: Ras-Raf disruption/FRET/MOA assay (BRAF RBD, Cyclophilin A). In kind it is biochemical. The note with it: read-out: KRAS G12C FRET IC50. A digest of the protocol: (§2)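 TR-FRET readout: anti-His Eu-W1024 (10 nM) and anti-GST allophycocyanin (50 nM) added after 3 h, 25° C compound incubation, then 1.5 h more. Decrease in FRET ratio versus DMSO wells marks Ras:RAF disruption; IC50 reported.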

The target in another assay is KRAS G12D (Homo sapiens (Human), UniProt P01116+P62937, G12D). The assay is described as above. In kind it is biochemical. The following applies: read-out: KRAS G12D FRET IC50. The essentials: as §2
For the next assay, the target named is KRAS G12S (Homo sapiens (Human), UniProt P01116+P62937, G12S). The assay is described as above. In kind it is biochemical. The note with it: read-out: KRAS G12S FRET IC50. The essentials: as §2
The target of another assay is KRAS G12V (Homo sapiens (Human), UniProt P01116+P62937, G12V). Described as above. In kind it is biochemical. The note with it: read-out: KRAS G12V FRET IC50. The essentials: as §2
For the next assay, the target named is KRAS G13C (Homo sapiens (Human), UniProt P01116+P62937, G13C). The assay is described as above. In kind it is biochemical. The note with it: read-out: KRAS G13C FRET IC50. The essentials:
as §2

A further assay addresses KRAS G13D (Homo sapiens (Human), UniProt P01116+P62937, G13D). The assay is described as above. In kind it is biochemical. The note with it: read-out: KRAS G13D FRET data IC50. The essentials:
as §2

In another assay the target is KRAS WT (Homo sapiens (Human), UniProt P01116+P62937). The description is as above. In kind it is biochemical. The note with it: read-out: KRAS WT FRET data IC50. A digest of the protocol:
as §2

Another assay addresses NRAS G12C (Homo sapiens (Human), UniProt P01111+P62937, G12C). The description is as above. In kind it is biochemical. The following applies: read-out: NRAS G12C FRET data IC50. The essentials: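 First, 25 μM Cyclophilin A, 12.5 nM His6-Ras-GMPPNP and 50 nM GST-BRAF RBD are mixed with diluted compound at pH 7.3. Next, 3 h at 25° C. Then 10 nM anti-His Eu-W1024 plus 50 nM anti-GST allophycocyanin for 1.5 h before TR-FRET reading.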

Assay [2] has as its system K-Ras G12C (NCI-H358 cells). Nature of the assay: Potency assay: pERK in NCI-H358 cells. In kind it is cell-based, human. The following applies: Homo sapiens; NCI-H358 cells, 4 hours; read-out: pERK EC50 (H358 KRAS G12C). The essentials:
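Cells plated the day before were exposed for 4 h at 37° C, 5% CO2 to a 10-point, 3-fold DMSO dilution series (10 mM top stock), in duplicate. Phospho-ERK was read by AlphaLISA SureFire Ultra or by In-Cell Western with DRAQ5 DNA stain, and IC50 came from a 4-parameter sigmoidal fit.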

A further assay relates to NCI-H358 (K-Ras G12C). Nature of the assay: CellTiter-Glo cell viability assay, NCI-H358. In kind it is cell-based, human. The following applies: Homo sapiens, NCI-H358, 120 h, 5-day treatment; read-out: H358 Cell Viability assay data (K-Ras G12C, IC50). The essentials:
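Cells seeded, compound added directly to plates; day 5: plates to RT ~30 min, CellTiter-Glo luminescence; (sample/avg DMSO)*100; 4-parameter fit.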

Assay [3] has as its system Capan-1 cells (K-Ras G12V). Briefly: CellTiter-Glo cell viability, Capan-1. In kind it is cell-based, human. The following applies: Homo sapiens, CAPAN-1, 120 h, K-Ras G12V, 5-day treatment; read-out: Capan-1 Cell Viability IC50. The essentials: as §1

A value given as a limit tells only on which side of the number the result lay.

Sequence of KRAS G13D (P01116 other isoform, or with tags, fused parts or gaps G13D): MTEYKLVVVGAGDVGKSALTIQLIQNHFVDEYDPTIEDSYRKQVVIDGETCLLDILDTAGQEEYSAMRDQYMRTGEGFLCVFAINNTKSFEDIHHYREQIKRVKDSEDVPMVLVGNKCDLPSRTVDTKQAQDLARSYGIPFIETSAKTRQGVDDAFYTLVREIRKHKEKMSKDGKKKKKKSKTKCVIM
Sequence of KRAS G13D (P62937 whole entry): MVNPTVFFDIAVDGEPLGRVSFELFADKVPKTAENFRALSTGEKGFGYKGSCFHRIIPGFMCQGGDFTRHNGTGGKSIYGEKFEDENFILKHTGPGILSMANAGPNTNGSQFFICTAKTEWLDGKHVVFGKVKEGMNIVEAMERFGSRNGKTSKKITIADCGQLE
Sequence of KRAS G12S (P01116 other isoform, or with tags, fused parts or gaps G12S): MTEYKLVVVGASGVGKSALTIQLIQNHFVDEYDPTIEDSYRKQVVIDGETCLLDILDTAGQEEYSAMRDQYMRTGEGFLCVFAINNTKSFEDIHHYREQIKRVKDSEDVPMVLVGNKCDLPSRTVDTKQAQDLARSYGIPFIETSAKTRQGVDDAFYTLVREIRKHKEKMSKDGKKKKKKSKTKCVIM
Sequence of KRAS G12S (P62937 whole entry): as the sequence (P62937 whole entry) above
Sequence of NRAS G12C (P01111 whole entry G12C): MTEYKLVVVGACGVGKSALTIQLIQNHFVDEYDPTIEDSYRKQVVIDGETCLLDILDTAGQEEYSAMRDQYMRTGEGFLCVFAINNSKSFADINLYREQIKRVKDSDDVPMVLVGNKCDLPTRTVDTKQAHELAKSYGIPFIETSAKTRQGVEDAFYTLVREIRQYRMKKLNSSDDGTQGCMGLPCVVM
Sequence of NRAS G12C (P62937 whole entry): as the sequence (P62937 whole entry) above
Sequence of KRAS G13C (P01116 other isoform, or with tags, fused parts or gaps G13C): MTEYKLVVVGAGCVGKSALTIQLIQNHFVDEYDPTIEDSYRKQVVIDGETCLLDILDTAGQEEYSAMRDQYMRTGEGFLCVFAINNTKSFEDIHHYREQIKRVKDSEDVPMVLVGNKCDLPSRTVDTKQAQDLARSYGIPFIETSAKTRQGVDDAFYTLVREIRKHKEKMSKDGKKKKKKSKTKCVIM
Sequence of KRAS G13C (P62937 whole entry): as the sequence (P62937 whole entry) above
Sequence of KRAS G12V (P01116 other isoform, or with tags, fused parts or gaps G12V): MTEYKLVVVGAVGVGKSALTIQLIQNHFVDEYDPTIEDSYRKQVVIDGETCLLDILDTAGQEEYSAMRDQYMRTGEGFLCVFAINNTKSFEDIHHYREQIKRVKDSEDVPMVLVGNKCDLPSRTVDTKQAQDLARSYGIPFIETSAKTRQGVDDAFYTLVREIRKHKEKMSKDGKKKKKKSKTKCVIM
Sequence of KRAS G12V (P62937 whole entry): as the sequence (P62937 whole entry) above
Sequence of KRAS WT (P01116 other isoform, or with tags, fused parts or gaps): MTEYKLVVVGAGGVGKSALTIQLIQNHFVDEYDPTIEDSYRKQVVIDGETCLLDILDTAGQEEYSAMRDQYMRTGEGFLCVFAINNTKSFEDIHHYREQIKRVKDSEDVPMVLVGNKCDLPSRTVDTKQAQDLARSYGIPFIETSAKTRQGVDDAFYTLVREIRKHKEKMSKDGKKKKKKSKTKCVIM
Sequence of KRAS WT (P62937 whole entry): as the sequence (P62937 whole entry) above
Sequence of KRAS G12D (P01116 other isoform, or with tags, fused parts or gaps G12D): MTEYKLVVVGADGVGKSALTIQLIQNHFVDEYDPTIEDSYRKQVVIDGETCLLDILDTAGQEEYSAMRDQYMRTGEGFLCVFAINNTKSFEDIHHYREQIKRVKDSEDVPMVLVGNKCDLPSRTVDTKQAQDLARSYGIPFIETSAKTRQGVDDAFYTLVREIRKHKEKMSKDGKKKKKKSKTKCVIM
Sequence of KRAS G12D (P62937 whole entry): as the sequence (P62937 whole entry) above
Sequence of KRAS G12C (P01116-2 other isoform, or with tags, fused parts or gaps G12C): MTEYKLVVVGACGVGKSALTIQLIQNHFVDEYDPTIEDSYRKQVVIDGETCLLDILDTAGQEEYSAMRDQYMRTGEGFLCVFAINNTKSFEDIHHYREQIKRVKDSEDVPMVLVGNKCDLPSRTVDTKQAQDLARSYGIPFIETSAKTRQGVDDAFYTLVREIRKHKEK
Sequence of KRAS G12C (P62937 whole entry): as the sequence (P62937 whole entry) above

As a reminder, the IC50 is the point on the concentration scale where inhibition reaches its midpoint. In general, EC50 refers to the concentration that produces a half-maximal response. With `CCn1c(-c2cnccc2COC)c2c3cc(ccc31)-c1cc(O)cc(c1)C[C@H](NC(=O)[C@H](C(C)C)N(C)C(=O)c1ncc[nH]1)C(=O)N1CCC[C@H](N1)C(=O)OCC(C)(C)C2` [Compound A64], the IC50 is 100 to 1000 nM in assay [1]; 100 to 1000 nM on KRAS G12C; 1000 to 10000 nM at KRAS G12D; 100 to 1000 nM on KRAS G12S; 100 to 1000 nM at KRAS G12V; 1000 to 10000 nM at KRAS G13C. The IC50 at KRAS G13D was in the range of 100 to 1000 nM; on KRAS WT it was 100 to 1000 nM; at NRAS G12C, 100 to 1000 nM; in the assay with NCI-H358 (K-Ras G12C), 10 to 100 nM. In assay [2], the EC50 is under 5000 nM.

Consider `CCn1c(-c2cnccc2COC)c2c3cc(ccc31)-c1cc(O)cc(c1)C[C@H](NC(=O)[C@H](C(C)C)N(C)C(=O)CNC(=N)N)C(=O)N1CCC[C@H](N1)C(=O)OCC(C)(C)C2` [Compound A68], for which the IC50 in assay [1] was over 10000 nM; on KRAS G12C, 10 to 100 nM; on KRAS G12D, 100 to 1000 nM; on KRAS G12S, 10 to 100 nM; on KRAS G12V, 100 to 1000 nM; on KRAS G13C, 10 to 100 nM. Moreover, the IC50 on KRAS G13D, on KRAS WT, at NRAS G12C and in the assay with NCI-H358 (K-Ras G12C) was 100 to 1000 nM each time.

For `CCn1c(-c2cnccc2COC)c2c3cc(ccc31)-c1cc(O)cc(c1)C[C@H](NC(=O)[C@H](C(C)C)N(C)C(=O)[C@@H](C)O)C(=O)N1CCC[C@H](N1)C(=O)OCC(C)(C)C2` [Compound A92], the IC50 was 1000 to 10000 nM in [1]; over 10000 nM in assay [3]; 1000 to 10000 nM on KRAS G12C; 1000 to 10000 nM at KRAS G12D; 1000 to 10000 nM on KRAS G12S; 1000 to 10000 nM on KRAS G12V. Further, the IC50 was 100 to 1000 nM on KRAS G13C; 1000 to 10000 nM on KRAS G13D; 1000 to 10000 nM at KRAS WT; 1000 to 10000 nM at NRAS G12C; 100 to 1000 nM in the assay on NCI-H358 (K-Ras G12C).

In the case of `CCn1c(-c2cccnc2[C@H](C)OC)c2c3cc(ccc31)-c1cc(O)cc(c1)C[C@H](NC(=O)[C@H](C(C)C)N(C)C(=O)C1(C(F)F)CCCO1)C(=O)N1CCC[C@H](N1)C(=O)OCC(C)(C)C2` (some centres unmarked) [Compound A416], the IC50 (in assay [1]; in assay [3]; on KRAS G12C; on KRAS G12D; at KRAS G12S; on KRAS G12V) was 100 to 1000 nM throughout. Moreover, the 50% inhibitory concentration (IC50) on KRAS G13C, at KRAS G13D, at KRAS WT and on NRAS G12C was 100 to 1000 nM in each case. For the same compound, the EC50 in [2] is under 5000 nM.

Regarding `CCn1c(-c2cccnc2[C@H](C)OC)c2c3cc(ccc31)-c1cc(O)cc(c1)C[C@H](NC(=O)[C@H](C(C)C)N(C)C(=O)[C@@H]1COC[C@@H]1N)C(=O)N1CCC[C@H](N1)C(=O)OCC(C)(C)C2` [Compound A418], the IC50 in [1] was 100 to 1000 nM; in [3] it was 1000 to 10000 nM; on KRAS G12C, 10 to 100 nM; on KRAS G12D, 100 to 1000 nM; on KRAS G12S, 10 to 100 nM; on KRAS G12V, 100 to 1000 nM. Moreover, the IC50 fell in the range of 10 to 100 nM at KRAS G13C, 100 to 1000 nM at KRAS G13D, 10 to 100 nM on KRAS WT and 10 to 100 nM on NRAS G12C. Besides, the EC50 in assay [2] is under 5000 nM.

Turning to `CCn1c(-c2cccnc2[C@H](C)OC)c2c3cc(ccc31)-c1cc(O)cc(c1)C[C@H](NC(=O)[C@H](C(C)C)N(C)C(=O)[C@H]1[C@@H](N)[C@@H]3CC[C@H]1O3)C(=O)N1CCC[C@H](N1)C(=O)OCC(C)(C)C2` [Compound A421], the IC50 fell in the range of 100 to 1000 nM in assay [1]; 1000 to 10000 nM in assay [3]; 100 to 1000 nM at KRAS G12C; 100 to 1000 nM on KRAS G12D; 100 to 1000 nM on KRAS G12S; 1000 to 10000 nM at KRAS G12V. In addition, the IC50 on KRAS G13C lay within 10 to 100 nM; at KRAS G13D, 100 to 1000 nM; on KRAS WT, 100 to 1000 nM; at NRAS G12C, 100 to 1000 nM. Further, in [2], the EC50 was under 5000 nM.
